Reference: US10941109B2, “Compositions and methods of treatment using a BCAT1 inhibitor” (Ergon Pharmaceuticals, LLC, priority 2011, dated 2021)

Test system: TGF-β1-stimulated human fibroblasts
Experiment: Collagen I production from TGF-β1-stimulated human fibroblasts (ELISA)
Type: cell-based
Conditions: for inhibition of collagen I secretion: at a concentration of 5-10 mM; for % Control Collagen Production: 30 min pretreatment, 7 ng/mL TGF-β1 for 48 hrs, collagen I per μg cell lysate
Method: In vitro fibrosis is assessed by measuring collagen synthesis after treatment of fibroblast cells with a profibrotic stimuli such as TGF-β1 or bleomycin. Collagen secretion into the media can be quantified in conditioned media using an appropriate ELISA kit.
Confluent monolayers of human fibroblasts, plated onto duplicate 35 mm dishes, were pretreated with various concentrations of compounds 2, 6, and 7 for 30 min followed by stimulation of the cells with 7 ng/mL TGF-β1 for 48 hrs. At the end of the experiment, conditioned media were collected and assessed for the presence of secreted collagen I, whereas cells were collected and lysed. Collagen I secretion was quantified using an ELISA kit from R&D Systems per the manufacturer's instructions and expressed as arbitrary absorbance units per μg of cell lysate. In Table 2, results are shown as % Control Collagen Production, defined as the amount of collagen I secreted per μg of cell lysate from fibroblast cultures stimulated with TGF-β1 in the absence of an inhibitor.

Row | Structure (SMILES) | inhibition of collagen I secretion | % Control Collagen Production (compound concentration 2 mM) [%] | % Control Collagen Production (compound concentration 5 mM) [%] | % Control Collagen Production (compound concentration 10 mM) [%]
1 | CC(=O)C(CCC(=O)O)c1ccccc1 (stereo not drawn) [Compound 7, 5-oxo-4-phenylhexanoic acid] | completely inhibit | 150 | 41 | 2
2 | CC(=O)C(C)CC(Cc1ccccc1)C(=O)O (stereo not drawn) [Compound 2, 2-benzyl-4-methyl-5-oxohexanoic acid] | completely inhibit | – | 4 | –
3 | CC(CCC(=O)O)C(=O)c1ccccc1 (stereo not drawn) [Compound 6, 4-methyl-5-oxo-5-phenylpentanoic acid] | completely inhibit | – | 77 | 2
